Experimental data as given in US20240343717A1, “MICROBIOCIDAL PYRAZOLE DERIVATIVES” (SYNGENTA CROP PROTECTION AG, priority 2021, published 2024).

Key:
Alternaria solani = Alternaria solani / tomato / leaf disc (early blight); assay type: in vivo; conditions: foliar, tomato leaf disks, sprayed 2 days before inoculation, compared to untreated control
Method: Example B1: Alternaria solani/Tomato/Leaf Disc (Early Blight) Tomato leaf disks cv. Baby are placed on agar in multiwell plates (24-well format) and sprayed with the formulated test compound diluted in water. The leaf disks are inoculated with a spore suspension of the fungus 2 days after application. The inoculated leaf disks are incubated at 23° C./21° C.

[1] = test system: Botryotinia fuckeliana (Botrytis cinerea); assay: Botryotinia fuckeliana (Botrytis cinerea) / liquid culture (gray mould); assay type: cell-based; conditions: growth inhibition photometrically 3-4 days after application, read-out: control of Botryotinia fuckeliana
Summary of the method: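 Conidia suspended in Vogels broth and added to compound dispensed from DMSO. Incubated at 24°C, with growth inhibition measured photometrically 3–4 days later.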

[2] = test system: Glomerella lagenarium (Colletotrichum lagenarium); assay: Glomerella lagenarium (Colletotrichum lagenarium) / liquid culture (anthracnose); assay type: cell-based; conditions: Colletotrichum orbiculare, growth inhibition photometrically 3-4 days after application, read-out: control of Glomerella lagenarium
Summary of the method: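 Cryo-stored conidia in potato dextrose broth were added to test compound in DMSO. Plates were incubated at 24° C, and growth inhibition was read photometrically 3-4 days after application.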

[3] = test system: Blumeria graminis f. sp. tritici (Erysiphe graminis f. sp. tritici); assay: Blumeria graminis f. sp. tritici / wheat / leaf disc preventative (powdery mildew on wheat); assay type: in vivo; conditions: foliar, wheat leaf segments, inoculated 1 day after application
Summary of the method: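 Wheat cv. Kanzler leaf segments on agar sprayed with formulated compound in water, inoculated 1 day later by shaking mildew-infected plants overhead. Incubated at 20° C, 60% rh, 24 h dark then 12 h light/12 h dark. Percent disease control versus untreated scored 6-8 days after application.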

Fusarium culmorum [4] = assay: microbe, parasite or virus in culture; assay type: cell-based; conditions: read-out: control of Fusarium culmorum
[5] = test system: Phaeosphaeria nodorum (Septoria nodorum); assay: Phaeosphaeria nodorum (Septoria nodorum) / wheat / leaf disc preventative (glume blotch); assay type: in vivo; conditions: Parastagonospora nodorum, foliar, wheat leaf segments, inoculated 2 days after application
Summary of the method: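 Wheat cv. Kanzler leaf segments on agar sprayed preventatively with formulated compound diluted in water, then inoculated with spore suspension 2 days after application. Incubated at 20° C, 75% rh, 12 h light/12 h dark; percent disease control versus untreated scored 5-7 days after application.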

[6] = test system: Monographella nivalis (Microdochium nivale); assay: Monographella nivalis (Microdochium nivale) / liquid culture (foot rot cereals); assay type: cell-based; conditions: growth inhibition photometrically 4-5 days after application, read-out: control of Monographella nivalis
Summary of the method: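 Fungal conidia mixed directly into potato dextrose broth and added to test compound delivered in DMSO. Incubated at 24° C; growth inhibition read photometrically 4-5 days after application.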

[7] = test system: Mycosphaerella arachidis (Cercospora arachidicola); assay: Mycosphaerella arachidis (Cercospora arachidicola) / liquid culture (early leaf spot); assay type: cell-based; conditions: growth inhibition photometrically 4-5 days after application, read-out: control of Mycosphaerella arachidis
Summary of the method: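 Spores taken straight from cryostorage are suspended in potato dextrose broth and added to test compound in DMSO. Plates are incubated at 24° C. Growth inhibition is scored photometrically 4-5 days after application.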

[8] = test system: Magnaporthe grisea (Pyricularia Oryzae); assay: whole plant or invertebrate; assay type: in vivo; conditions: foliar, read-out: control of Magnaporthe grisea
Pyrenophora teres = Pyrenophora teres / barley / leaf disc preventative (net blotch); assay type: in vivo; conditions: foliar, barley leaf segments, inoculated 2 days after application
Summary of the method: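 Barley cv. Hasso leaf segments on agar sprayed with formulated compound, inoculated with spores 2 days later. Incubated at 20 °C, 65% rh, 12 h light/dark; disease control versus untreated assessed 5–7 days after application.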

[9] = test system: Mycosphaerella graminicola (Septoria tritici); assay: Mycosphaerella graminicola (Septoria tritici) / liquid culture (Septoria blotch); assay type: cell-based; conditions: Zymoseptoria tritici, growth inhibition photometrically 4-5 days after application, read-out: control of Mycosphaerella graminicola
Summary of the method: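 Conidia suspended in potato dextrose broth and added to test compound supplied in DMSO in 96-well plates. Incubated at 24 °C, and growth inhibition read photometrically 4-5 days after application.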

[10] = test system: Gibberella zeae (Fusarium graminearum); assay: whole plant or invertebrate; assay type: in vivo; conditions: in Triticum aestivum, read-out: control of Gibberella zeae
Sclerotinia sclerotiorum = Sclerotinia sclerotiorum / liquid culture (cottony rot); assay type: cell-based; conditions: growth inhibition photometrically 3-4 days after application, read-out: control of Sclerotinia sclerotiorum
Method: Example B15: Sclerotinia sclerotiorum/Liquid Culture (Cottony Rot) Mycelia fragments of a newly grown liquid culture of the fungus are directly mixed into nutrient broth (PDB potato dextrose broth). After placing a (DMSO) solution of test compound into a microtiter plate (96-well format) the nutrient broth containing the fungal material is added. The test plates are incubated at 24° C. and the inhibition of growth is determined photometrically 3-4 days after application.

Fusarium culmorum [11] = assay: whole plant or invertebrate; assay type: in vivo; conditions: in Triticum aestivum, read-out: control of Fusarium culmorum

With Cn1cc(C(C)(CNC(=O)c2cc(-c3ccc(F)cc3F)on2)c2cccc(C#N)n2)cn1 (stereo not drawn) [Compound P-15, N-[2-(6-cyano-2-pyridyl)-2-(1-methylpyrazol-4-yl)propyl]-5-(2,4-difluorophenyl) isoxazole-3-carboxamide] the pest or weed control at 200 ppm (Alternaria solani) was ≥ 80%, the inhibition of growth at 20 ppm [1] was ≥ 80% and the inhibition of growth at 20 ppm [2] was ≥ 80%. For the same compound, the pest or weed control at 200 ppm [3] was ≥ 80%, the inhibition of growth at 20 ppm (Fusarium culmorum [4]) was ≥ 80% and the pest or weed control at 200 ppm [5] was ≥ 80%. For the same compound, the inhibition of growth at 20 ppm [6] was ≥ 80%, the inhibition of growth at 20 ppm [7] was ≥ 80% and the pest or weed control at 200 ppm [8] was ≥ 80%. The pest or weed control at 200 ppm (Pyrenophora teres) was ≥ 80% and the inhibition of growth at 20 ppm [9] was ≥ 80%.

In the case of Cn1ncc(C(C)(CNC(=O)c2cc(-c3ccc(F)cc3F)on2)c2cccc(Cl)n2)c1Cl (stereo not drawn) [Compound P-26, N-[2-(5-chloro-1-methyl-pyrazol-4-yl)-2-(6-chloro-2-pyridyl)propyl]-5-(2,4-difluorophenyl) isoxazole-3-carboxamide], the pest or weed control at 200 ppm (Alternaria solani) is reported as ≥ 80%, the inhibition of growth at 20 ppm [1] is reported as ≥ 80% and the inhibition of growth at 20 ppm [2] is reported as ≥ 80%. For the same compound, the pest or weed control at 200 ppm [3] was ≥ 80%, the inhibition of growth at 20 ppm (Fusarium culmorum [4]) was ≥ 80% and the pest or weed control at 200 ppm [10] was ≥ 80%. For the same compound, the pest or weed control at 200 ppm [5] was ≥ 80%, the inhibition of growth at 20 ppm [6] was ≥ 80% and the inhibition of growth at 20 ppm [7] was ≥ 80%. The pest or weed control at 200 ppm [8] was ≥ 80%, the pest or weed control at 200 ppm (Pyrenophora teres) was ≥ 80% and the inhibition of growth at 20 ppm (Sclerotinia sclerotiorum) was ≥ 80%. The inhibition of growth at 20 ppm [9] was ≥ 80%.

For Cn1cc(C(CNC(=O)c2cc(-c3ccc(F)cc3F)on2)c2cnccn2)cn1 (stereo not drawn) [Compound P-8, 5-(2,4-difluorophenyl)-N-[2-(1-methylpyrazol-4-yl)-2-pyrazin-2-yl-ethyl]isoxazole-3-carboxamide], the pest or weed control at 200 ppm [3] was ≥ 80%, the pest or weed control at 200 ppm [8] was ≥ 80% and the pest or weed control at 200 ppm (Pyrenophora teres) was ≥ 80%.

With Cn1cc([C@](C)(CNC(=O)c2nnc(-c3ccc(F)cc3F)s2)c2cccc(Cl)n2)cn1 [Compound P-35, N-[(2R)-2-(6-chloro-2-pyridyl)-2-(1-methylpyrazol-4-yl)propyl]-5-(2,4-difluorophenyl)-1,3,4-thiadiazole-2-carboxamide] the pest or weed control at 200 ppm (Alternaria solani) was ≥ 80%, the inhibition of growth at 20 ppm [1] was ≥ 80% and the inhibition of growth at 20 ppm [2] was ≥ 80%. The pest or weed control at 200 ppm [3] was ≥ 80%, the inhibition of growth at 20 ppm (Fusarium culmorum [4]) was ≥ 80% and the pest or weed control at 200 ppm (Fusarium culmorum [11]) was ≥ 80%. For the same compound, the pest or weed control at 200 ppm [10] was ≥ 80%, the pest or weed control at 200 ppm [5] was ≥ 80% and the inhibition of growth at 20 ppm [6] was ≥ 80%. For the same compound, the inhibition of growth at 20 ppm [7] was ≥ 80%, the pest or weed control at 200 ppm (Pyrenophora teres) was ≥ 80% and the inhibition of growth at 20 ppm (Sclerotinia sclerotiorum) was ≥ 80%. The inhibition of growth at 20 ppm [9] was ≥ 80%.

For Cc1cccc(C(C)(CNC(=O)c2cc(-c3ccc(F)cc3F)on2)c2cnn(C)c2)n1 (stereo not drawn) [Compound P-16, 5-(2,4-difluorophenyl)-N-[2-(1-methylpyrazol-4-yl)-2-(6-methyl-2-pyridyl)propyl] isoxazole-3-carboxamide], the inhibition of growth at 20 ppm [1] was ≥ 80%, the inhibition of growth at 20 ppm [2] was ≥ 80% and the pest or weed control at 200 ppm [3] was ≥ 80%. The inhibition of growth at 20 ppm (Fusarium culmorum [4]) was ≥ 80%, the pest or weed control at 200 ppm (Fusarium culmorum [11]) was ≥ 80% and the pest or weed control at 200 ppm [10] was ≥ 80%. For the same compound, the inhibition of growth at 20 ppm [6] was ≥ 80%, the inhibition of growth at 20 ppm [7] was ≥ 80% and the pest or weed control at 200 ppm (Pyrenophora teres) was ≥ 80%. The inhibition of growth at 20 ppm (Sclerotinia sclerotiorum) was ≥ 80% and the inhibition of growth at 20 ppm [9] was ≥ 80%.

For COc1cc(Cl)nc(C(C)(CNC(=O)c2cc(-c3ccc(F)cc3F)on2)c2cnn(C)c2)c1 (stereo not drawn) [Compound P-36, N-[2-(6-chloro-4-methoxy-2-pyridyl)-2-(1-methylpyrazol-4-yl)propyl]-5-(2,4-difluorophenyl) isoxazole-3-carboxamide], the inhibition of growth at 20 ppm [1] was ≥ 80%, the inhibition of growth at 20 ppm [2] was ≥ 80% and the pest or weed control at 200 ppm [3] was ≥ 80%. For the same compound, the inhibition of growth at 20 ppm (Fusarium culmorum [4]) was ≥ 80%, the pest or weed control at 200 ppm (Fusarium culmorum [11]) was ≥ 80% and the pest or weed control at 200 ppm [10] was ≥ 80%. The inhibition of growth at 20 ppm [6] was ≥ 80%, the inhibition of growth at 20 ppm [7] was ≥ 80% and the pest or weed control at 200 ppm (Pyrenophora teres) was ≥ 80%. The inhibition of growth at 20 ppm [9] was ≥ 80% and the melting point was 157 to 159 °C.

In the case of CC(C)Nc1cccc(C(C)(CNC(=O)c2cc(-c3ccc(F)cc3F)on2)c2cnn(C)c2)n1 (stereo not drawn) [Compound P-103, 5-(2,4-difluorophenyl)-N-[2-[6-(isopropylamino)-2-pyridyl]-2-(1-methylpyrazol-4-yl)propyl]isoxazole-3-carboxamide], the inhibition of growth at 20 ppm [6] is reported as ≥ 80%, the pest or weed control at 200 ppm [8] is reported as ≥ 80% and the inhibition of growth at 20 ppm [9] is reported as ≥ 80%.

With Cc1cccc(C(C)(CNC(=O)c2cc(-c3ccc(F)cc3F)on2)c2cnn(C)c2Cl)n1 (stereo not drawn) [Compound P-73, N-[2-(5-chloro-1-methyl-pyrazol-4-yl)-2-(6-methyl-2-pyridyl)propyl]-5-(2,4-difluorophenyl) isoxazole-3-carboxamide] the pest or weed control at 200 ppm (Alternaria solani) was ≥ 80%, the inhibition of growth at 20 ppm [1] was ≥ 80% and the inhibition of growth at 20 ppm [2] was ≥ 80%. The pest or weed control at 200 ppm [3] was ≥ 80%, the inhibition of growth at 20 ppm (Fusarium culmorum [4]) was ≥ 80% and the pest or weed control at 200 ppm (Fusarium culmorum [11]) was ≥ 80%. For the same compound, the pest or weed control at 200 ppm [10] was ≥ 80%, the pest or weed control at 200 ppm [5] was ≥ 80% and the inhibition of growth at 20 ppm [6] was ≥ 80%. For the same compound, the inhibition of growth at 20 ppm [7] was ≥ 80%, the pest or weed control at 200 ppm (Pyrenophora teres) was ≥ 80% and the inhibition of growth at 20 ppm (Sclerotinia sclerotiorum) was ≥ 80%. For the same compound, the inhibition of growth at 20 ppm [9] was ≥ 80%.

For Cn1cc(C(C)(CNC(=O)c2nnc(-c3ccc(F)cc3F)s2)c2cccc(Br)n2)cn1 (stereo not drawn) [Compound P-5, N-[2-(6-bromo-2-pyridyl)-2-(1-methylpyrazol-4-yl)propyl]-5-(2,4-difluorophenyl)-1,3,4-thiadiazole-2-carboxamide], the pest or weed control at 200 ppm (Alternaria solani) was ≥ 80%, the inhibition of growth at 20 ppm [1] was ≥ 80% and the inhibition of growth at 20 ppm [2] was ≥ 80%. For the same compound, the pest or weed control at 200 ppm [3] was ≥ 80%, the inhibition of growth at 20 ppm (Fusarium culmorum [4]) was ≥ 80% and the pest or weed control at 200 ppm (Fusarium culmorum [11]) was ≥ 80%. The pest or weed control at 200 ppm [10] was ≥ 80%, the pest or weed control at 200 ppm [5] was ≥ 80% and the inhibition of growth at 20 ppm [6] was ≥ 80%. For the same compound, the inhibition of growth at 20 ppm [7] was ≥ 80%, the pest or weed control at 200 ppm (Pyrenophora teres) was ≥ 80% and the inhibition of growth at 20 ppm [9] was ≥ 80%.

In the case of Cc1ccc(C(C)(CNC(=O)c2cc(-c3ccc(F)cc3F)on2)c2cnn(C)c2)nc1Br (stereo not drawn) [Compound P-110, N-[2-(6-bromo-5-methyl-2-pyridyl)-2-(1-methylpyrazol-4-yl)propyl]-5-(2,4-difluorophenyl) isoxazole-3-carboxamide], the pest or weed control at 200 ppm (Alternaria solani) is reported as ≥ 80%, the inhibition of growth at 20 ppm [1] is reported as ≥ 80% and the inhibition of growth at 20 ppm [2] is reported as ≥ 80%. The pest or weed control at 200 ppm [3] was ≥ 80%, the inhibition of growth at 20 ppm (Fusarium culmorum [4]) was ≥ 80% and the pest or weed control at 200 ppm [5] was ≥ 80%. The inhibition of growth at 20 ppm [6] was ≥ 80%, the inhibition of growth at 20 ppm [7] was ≥ 80% and the pest or weed control at 200 ppm [8] was ≥ 80%. The pest or weed control at 200 ppm (Pyrenophora teres) was ≥ 80%, the inhibition of growth at 20 ppm (Sclerotinia sclerotiorum) was ≥ 80% and the inhibition of growth at 20 ppm [9] was ≥ 80%.

In the case of COC(=O)c1cccc(C(C)(CNC(=O)c2cc(-c3ccc(F)cc3F)on2)c2cnn(C)c2)n1 (stereo not drawn) [Compound P-39, methyl 6-[2-[5-(2,4-difluorophenyl)isoxazole-3-carbonyl]amino]-1-methyl-1-(1-methylpyrazol-4-yl)ethyl]pyridine-2-carboxylate], the inhibition of growth at 20 ppm [1] is reported as ≥ 80%, the inhibition of growth at 20 ppm [2] is reported as ≥ 80% and the pest or weed control at 200 ppm [5] is reported as ≥ 80%. The inhibition of growth at 20 ppm [6] was ≥ 80%, the pest or weed control at 200 ppm [8] was ≥ 80% and the inhibition of growth at 20 ppm [9] was ≥ 80%.
